Literature values as cited in patent US11351213B2, “Composition for the prevention and/or treatment of respiratory tract disorders” (NEILOS S.R.L., priority 2017, dated 2022).

Columns and labels:
[1] = system: patients affected by COPD; conditions: HIACE study
[2] = system: COPD patients
[3] = not given; remark: listed apart in the source
[4] = COPD patients under treatment for six months

Row | SMILES | exacerbations ([1]; COPD, reduction from 1.71 times a year) [times a year] | forced expiratory flow ([1]; patients affected by COPD) | reduction of days of malaise ([2]; COPD) [days/month] | reduction of exacerbations of the pathology ([2]; COPD) [exacerbations/month] | reduction of hospitalisations for COPD ([2]; COPD) [%] | FEV1 (forced expiratory volume at the first second) [2, 4] | maximum expiratory flow [2, 4] | FEV1 ([2]; after a brief therapy of 4 weeks) | activity on bronchi in vitro | activity on bronchi in vivo [3]
1 | CC(=O)N[C@@H](CS)C(=O)O [NAC, N-acetyl-L-cysteine] | 0.96 | rose from 25% to 75% | 0.56 | 0.07 | 30 | significant increase | significant increase | from 25% to 30% |  | 
2 | O=c1c2ccccc2nc2n1CC[C@@H]2O [Vasicinone, vasicinone] |  |  |  |  |  |  |  |  | bronchodilating activity | bronchoconstricting activity
3 | O[C@H]1CCN2Cc3ccccc3N=C12 [vasicine] |  |  |  |  |  |  |  |  | bronchodilating activity | bronchodilating activity
